Source: ChEMBL document CHEMBL6103585, “Construction and activity evaluation of novel CHS inhibitors against fungal infections” (Eur J Med Chem, 2025)
Values after ≈ are worked out from the molar mass of the structure shown. Active and inactive are the calls of the source. The calls are words filed in the database; no cut-off is given here.

Experiments:
A549 = assay: Cytotoxicity against human A549 cells incubated for 24 hrs by CCK8 assay; assay type: functional, cell-based; settings: A549, 24 h
Candida tropicalis = assay: Antifungal activity against Candida tropicalis ATCC 1369 assessed as fungal growth inhibition incubated for 72 hrs by broth microdilution method; assay type: functional
HeLa = assay: Cytotoxicity against human HeLa cells incubated for 24 hrs by CCK8 assay; assay type: functional, cell-based
Candida albicans [1] = assay: Antifungal activity against fluconazole-resistant Candida albicans CaR assessed as reduction in fungal growth incubated for 72 hrs by broth microdilution method; assay type: functional
Candida albicans [2] = assay: Induction of apoptosis in Candida albicans ATCC SC5314 assessed as necrotic cells by V-FITC/PI staining based flow cytometric analysis (reference value: 2.74%); assay type: functional
Candida albicans [3] = assay: Antifungal activity against fluconazole-resistant Candida albicans 904 assessed as reduction in fungal growth incubated for 72 hrs by broth microdilution method; assay type: functional
Candida albicans [4] = assay: Antifungal activity against fluconazole-resistant Candida albicans 901 assessed as reduction in fungal growth incubated for 72 hrs by broth microdilution method; assay type: functional
Candida albicans [5] = assay: Fungicidal activity against Candida albicans ATCC SC5314 assessed as dead cells (reference value: 8%); assay type: functional
Cryptococcus neoformans = assay: Antifungal activity against Cryptococcus neoformans ZKCC 2209 assessed as fungal growth inhibition incubated for 72 hrs by broth microdilution method; assay type: functional
Candida albicans [6] = assay: Fungicidal activity against Candida albicans ATCC SC5314 assessed as live cells (reference value: 92%); assay type: functional
Candida albicans [7] = assay: Antifungal activity against fluconazole-resistant Candida albicans 17# assessed as reduction in fungal growth incubated for 72 hrs by broth microdilution method; assay type: functional
Candida albicans [8] = assay: Induction of apoptosis in Candida albicans ATCC SC5314 assessed as late apoptotic cells by V-FITC/PI staining based flow cytometric analysis (reference value: 0.40%); assay type: functional
Candida albicans [9] = assay: Induction of apoptosis in Candida albicans ATCC SC5314 assessed as early apoptotic cells by V-FITC/PI staining based flow cytometric analysis (reference value: 3.51%); assay type: functional
Aspergillus fumigatus = assay: Antifungal activity against Aspergillus fumigatus KM 8001 assessed as fungal growth inhibition incubated for 72 hrs by broth microdilution method; assay type: functional
Candida albicans [10] = assay: Antifungal activity against Candida albicans ATCC SC5314 assessed as fungal growth inhibition incubated for 72 hrs by broth microdilution method; assay type: functional
Candida albicans [11] = assay: Antifungal activity against fluconazole-resistant Candida albicans 632 assessed as reduction in fungal growth incubated for 72 hrs by broth microdilution method; assay type: functional
[12] = Binding affinity to chitin synthase (unknown origin) assessed as dissociation constant by SPR analysis
Candida albicans [13] = assay: Induction of apoptosis in Candida albicans ATCC SC5314 assessed as viable cells by V-FITC/PI staining based flow cytometric analysis (reference value: 93.3%); assay type: functional
Nakaseomyces glabratus = assay: Antifungal activity against Candida glabrata assessed as fungal growth inhibition incubated for 72 hrs by broth microdilution method; assay type: functional
Candida albicans [14] = assay: In vivo antifungal activity against Candida albicans 901 infected in mouse model assessed as expansion of alveolar spaces in lung at 5 microg/g, iv pre-infected with fungi by intravenous injection followed by compound administration and measured on day 8 by H and E staining based analysis; assay type: functional, organism-based; settings: dose 5.0 µg/g, time 8.0 day
[15] = Inhibition of chitin synthase extracted from Candida tropicalis ATCC 1369 using UDP-GlcNAc as substrate incubated for 1 hrs
Candida albicans [16] = assay: In vivo antifungal activity against Candida albicans 901 infected in mouse model assessed as decrease in IDO protein expression level at 5 microg/g, iv pre-infected with fungi by intravenous injection followed by compound administration and measured on day 8 by Western blotting analysis; assay type: functional, organism-based; settings: dose 5.0 µg/g, time 8.0 day
Candida albicans [17] = assay: In vivo antifungal activity against Candida albicans 901 infected in mouse model assessed as decrease in IL-2 protein expression level at 5 microg/g, iv pre-infected with fungi by intravenous injection followed by compound administration and measured on day 8 by Western blotting analysis; assay type: functional, organism-based; settings: dose 5.0 µg/g, time 8.0 day
Candida albicans [18] = assay: In vivo antifungal activity against Candida albicans 901 infected in mouse model assessed as decrease in PD-L1 protein expression level at 5 microg/g, iv pre-infected with fungi by intravenous injection followed by compound administration and measured on day 8 by Western blotting analysis; assay type: functional, organism-based; settings: dose 5.0 µg/g, time 8.0 day
Candida albicans [19] = assay: In vivo antifungal activity against Candida albicans 901 infected in mouse model assessed as decrease in IFN-gamma protein expression level at 5 microg/g, iv pre-infected with fungi by intravenous injection followed by compound administration and measured on day 8 by Western blotting analysis; assay type: functional, organism-based; settings: dose 5.0 µg/g, time 8.0 day
Candida albicans [20] = assay: In vivo antifungal activity against Candida albicans 901 infected in mouse model assessed as reduction in genetic material content in lung at 5 microg/g, iv pre-infected with fungi by intravenous injection followed by compound administration and measured on day 8 by H and E staining based analysis; assay type: functional, organism-based; settings: dose 5.0 µg/g, time 8.0 day
Candida albicans [21] = assay: Induction of ROS generation in Candida albicans ATCC SC5314 assessed as increase in fluorescence intensity incubated for 12 hrs by fluorescence microscopic analysis; assay type: functional, organism-based
Candida albicans [22] = assay: In vivo antifungal activity against Candida albicans 901 infected in mouse model assessed as body weight gain at 5 microg/g, iv pre-infected with fungi by intravenous injection followed by compound administration and measured on day 8; assay type: functional, organism-based; settings: dose 5.0 µg/g, time 8.0 day

SMILES | IC50 (A549) [µM] | MIC50 (Candida tropicalis) [µg/mL] | IC50 (HeLa) [µM] | MIC50 (Candida albicans [1]) [µg/mL] | Activity (Candida albicans [2]) [%] | MIC50 (Candida albicans [3]) [µg/mL] | MIC50 (Candida albicans [4]) [µg/mL] | Activity (Candida albicans [5]) [%] | MIC50 (Cryptococcus neoformans) [µg/mL] | Activity (Candida albicans [6]) [%] | MIC50 (Candida albicans [7]) [µg/mL] | Activity (Candida albicans [8]) [%] | Activity (Candida albicans [9]) [%] | MIC50 (Aspergillus fumigatus) [µg/mL] | MIC50 (Candida albicans [10]) [µg/mL] | MIC50 (Candida albicans [11]) [µg/mL] | Kd [12] [µM] | Activity (Candida albicans [13]) [%] | MIC50 (Nakaseomyces glabratus) [µg/mL] | IC50 [15] [µM] | other results
O=C(NCC(=O)N1CCN(c2ccccc2)CC1)c1nc2ccc(Cl)cc2c(=O)[nH]1 | > 50 | 1 (≈ 2.35 µM) | > 50 | 4 (≈ 9.39 µM) | 16.6 | 4 (≈ 9.39 µM) | 8 (≈ 18.8 µM) | 78 | 2 (≈ 4.7 µM) | 22 | 2 (≈ 4.7 µM) | 7.3 | 13.2 | 4 (≈ 9.39 µM) | 0.5 (≈ 1.17 µM) | 8 (≈ 18.8 µM) | 0.0608 | 62.9 | 1 (≈ 2.35 µM) | – | –
OC(Cn1cncn1)(Cn1cncn1)c1ccc(F)cc1F [FLUCONAZOLE] | – | 0.5 (≈ 1.63 µM) | – | ≥ 16 | – | ≥ 16 | ≥ 16 | – | 2 (≈ 6.53 µM) | – | ≥ 16 | – | – | 4 (≈ 13.1 µM) | 1 (≈ 3.27 µM) | ≥ 16 | – | – | 1 (≈ 3.27 µM) | – | –
C[C@@H](c1ncncc1F)[C@](O)(Cn1cncn1)c1ccc(F)cc1F | – | – | – | – | – | – | – | – | – | – | – | – | – | – | – | – | – | – | – | – | Activity (Candida albicans [14]): inactive
CC(=O)N1CCN(C(=O)CNC(=O)c2nc3ccc(Cl)cc3c(=O)[nH]2)CC1 | – | 1 (≈ 2.55 µM) | – | – | – | – | – | – | ≥ 16 | – | – | – | – | 8 (≈ 20.4 µM) | 1 (≈ 2.55 µM) | – | – | – | 2 (≈ 5.1 µM) | – | –
O=C(CNC(=O)c1nc2ccc(Cl)cc2c(=O)[nH]1)Nc1cccnc1 | – | 8 (≈ 22.4 µM) | – | – | – | – | – | – | 8 (≈ 22.4 µM) | – | – | – | – | ≥ 16 | 8 (≈ 22.4 µM) | – | – | – | 4 (≈ 11.2 µM) | – | –
O=C(CNC(=O)c1nc2ccc(Cl)cc2c(=O)[nH]1)NCc1ccccc1 | – | 2 (≈ 5.39 µM) | – | – | – | – | – | – | ≥ 16 | – | – | – | – | 8 (≈ 21.6 µM) | 4 (≈ 10.8 µM) | – | – | – | 8 (≈ 21.6 µM) | 30.3 | –
NC(=O)OC[C@H](O)[C@@H](O)[C@H](N)C(=O)N[C@H](C(=O)O)[C@H]1O[C@@H](n2cc(CO)c(=O)[nH]c2=O)[C@H](O)[C@@H]1O [POLYOXIN B] | > 50 | 8 (≈ 15.8 µM) | > 50 | 8 (≈ 15.8 µM) | 33 | 8 (≈ 15.8 µM) | 4 (≈ 7.88 µM) | 81 | 4 (≈ 7.88 µM) | 19 | 2 (≈ 3.94 µM) | 4.5 | 4.93 | ≥ 16 | 4 (≈ 7.88 µM) | 4 (≈ 7.88 µM) | 0.00562 | 57.5 | 2 (≈ 3.94 µM) | 25.5 | Activity (Candida albicans [16]): Active; Activity (Candida albicans [17]): Active; Activity (Candida albicans [18]): Active; Activity (Candida albicans [14]): Active; Activity (Candida albicans [19]): Active; Activity (Candida albicans [20]): Active; Activity (Candida albicans [21]): Active; Activity (Candida albicans [22]): Active
O=C(NCC(=O)N1CCN(C(=O)c2ccccc2)CC1)c1nc2ccc(Cl)cc2c(=O)[nH]1 | > 50 | 0.5 (≈ 1.1 µM) | > 50 | 2 (≈ 4.41 µM) | 23.6 | 2 (≈ 4.41 µM) | 8 (≈ 17.6 µM) | 94 | 4 (≈ 8.81 µM) | 6 | 4 (≈ 8.81 µM) | 12.1 | 11.1 | 2 (≈ 4.41 µM) | 0.5 (≈ 1.1 µM) | 4 (≈ 8.81 µM) | 0.00194 | 53.2 | 1 (≈ 2.2 µM) | 19.7 | Activity (Candida albicans [21]): Active
